US12054497B2, “Substituted heterocyclic fused cyclic compound, preparation method therefor and pharmaceutical use thereof” (GENFLEET THERAPEUTICS (SHANGHAI) INC., priority 2019, dated 2024)

Key:
[1] = Pharmacokinetic evaluation on mice, intragastric (PO) administration (Test Example 6); format: in vivo; details: PO 15 mg/kg, male CD-1 mice
Method: (§1) Experimental objective: male CD-1 mice were chosen as tested animals, and the LC-MS-MS method was employed to measure the concentrations of a tested compound in blood plasma of a mouse intravenously and intragastrically administrated with the tested compound at different times. The pharmacokinetic behaviors of tested compounds in mice were studied, and the pharmacokinetic characteristics thereof were evaluated.
(§2) Experimental scheme: experimental animals: 18 healthy adult male CD-1 mice (6 to 8 weeks old, and body weight about 30 g) were divided into 6 groups according to the principle of similar body weights: 3 mice in each of IV groups (3 groups), and 3 mice in each of PO groups (3 groups). The animals were purchased from Shanghai Jihui Laboratory Animal Care Co., Ltd.
(§3) Formulation: IV group: taking 10 mL of sample solution for example, 4 mg of sample was weighed, orderly added with 0.5 mL of DMSO and […], then added with […] of HP-p-CD, finally added with water to a constant volume of 10 mL, and stirred and subjected to ultrasonic irradiation, thereby obtaining a 0.4 mg/mL clear solution. PO group: an appropriate amount of sample was weighed, orderly added with appropriate amounts of Labrasol and water in a volume ratio of 10:40, and stirred and subjected to ultrasonic irradiation, thereby obtaining a 1.5 mg/mL uniform solution.
(§4) Administration: after being deprived of food for one night, the IV groups were intravenously administrated with the formulated solutions, respectively, with an injection volume of 5 mL/kg and a dosage of 2 mg/kg. The PO groups were intragastrically administrated with the formulated solutions, respectively, with an injection volume of […] and a dosage of 15 mg/kg.
(§5) Experimental operations: after the intravenous injection groups and the intragastric administration groups of the male CD-1 mice were administrated with the tested compounds, 110 ul of blood was sampled at the following time points: 0.0833, 0.25, 0.5, 1, 2, 4, 6, 8, and 24 hours. The sampled blood was placed into an anticoagulant tube which was added with K2EDTA in advance and preserved in dry ice. The tube was centrifuged for 15 minutes to separate blood plasma, and the separated blood plasma was preserved at −70° C. The animals were allowed to be fed after 4 hours of administration. The LC-MS-MS method was employed to measure the concentration of the tested compounds in the blood plasma after the intravenous and intragastric administration to the mice. The linear range of the method was 1-3000 ng/ml. The blood plasma samples were analyzed after protein precipitation with ACN.

[2] = tested on: subcutaneous xenograft tumor model of MIA PaCa-2; assay: In vivo pharmacodynamic experiment, tumor growth inhibition (Test Example 5); parameters: species or system BALB/c nude mice; details: p.o., QD; for TGI: day 14
Method: Experimental objective: to evaluate the in vivo pharmaceutical effects of tested compounds on the subcutaneous xenograft tumor model of MIA PaCa-2.
Experimental operation: 6 to 8 weeks old female BALB/c nude mice each having the body weight of 18-20 g were chosen. MIA PaCa-2 cells were cultured in DMEM containing 10% FBS, 2.5% HS and 1% penicillin-streptomycin at 37° C. in an incubator with 5% CO2. Cells were collected. The MIA PaCa-2 cells were subcutaneously inoculated to the animals at their backs on the right, 2.0×10^6 cells (0.1 mL) for each animal. When tumor grew to 190-311 mm^3, mice with tumor having a suitable size were chosen and treated in groups, with administration dosages shown in Table 5 below. The animals were weighed on an electronic balance each day. The tumor volume was investigated by using a vernier caliper twice a week. The tumor volume was calculated by the following equation: V=0.5 a×b^2, a and b representing the long diameter and the short diameter of the tumor, respectively. The tumor volume was used to calculate a tumor growth inhibition rate (TGI), and the TGI shown in the form of a percentage was used to indicate the antineoplastic activity of a compound. The TGI was calculated by the following equation: TGI (%)=[1−avTi−0/avCi−0)]×100, with avTi−0 representing the average tumor volume of the group administrated with the compound on a specific day minus the average tumor volume of this group on the day of grouping, and avCi−0 representing the average tumor volume of the solvent control group on a specific day minus the average tumor volume of the solvent control group on the day of grouping. The tumor volume was shown in the form of an average value±standard error of mean (SEM).

[3] = Pharmacokinetic evaluation on mice, intravenous administration (Test Example 6); format: in vivo; details: male CD-1 mice, IV 2 mg/kg
Method: as §1, §2, §3, §4, §5

F (bioavailability) [1]: 36.10%
Cmax ([1]; plasma): 1221 ng/mL
Tmax ([1]; plasma): 60 min
Cl (clearance rate) [3]: 73.2 mL/min/kg
T1/2 (half-life) [3]: 19.1 min
Vd (volume of distribution) [3]: 1.15 L/kg
Structure (SMILES): C=CC(=O)N1CCN(c2nc(=O)n(-c3c(C)ccnc3C(C)C)c3nc(-c4c(O)cccc4F)c(F)cc23)[C@@H](C)C1 [AMG 510, reference compound]
Tumor Volume on Day 14 after Administration ([2]; 1 mg/kg): 314.28 mm^3
TGI ([2]; 1 mg/kg): 82.8%
Tumor Volume on Day 14 after Administration ([2]; 3 mg/kg): 205.35 mm^3
TGI ([2]; 3 mg/kg): 109.1%
Tumor Volume on Day 14 after Administration ([2]; 10 mg/kg): 81.72 mm^3
TGI ([2]; 10 mg/kg): 138.9%
